Results reported in patent publication US20100093861A1, “TREATMENT OF INSULIN RESISTANCE OR DISEASES ASSOCIATED WITH INSULIN RESISTANCE” (Stevia ApS, priority 2006, published 2010).

Legend:
[1] = system: INS-1; test: Gene expression in islets from diabetic KKAy-mice, real time RT-PCR (Example 2): INS-1; type: in vivo; settings: islets of KKAy-mice after nine weeks treatment, normalized to 18S rRNA
Method: A the end of the nine week period of the in vivo study in example 1 RNA was purified from Islets, muscle, liver and fat from the three experimental groups, using standard techniques as described in Kiergen, RNA easy.
Gene expression of PDX-1, IRS1, Beta2, 11beta-HSD-1, Akt1, C/EBP-alpha, CPT1, GLUT2, IGF1, IR and Ins1 was measured with Real time RT-PCR using Taq Man Assays normalized to 18S rRNA, using the standard protocol (ABI, USA). All reagents were obtained from (ABI, USA). All probes are standard probes obtainable from ABI, USA, under the specific probe code number, given in respect of each gene.

[2] = system: Beta2/neuroD; test: Relative real time RT-PCR in islets of KKAy mice (Example 3): Beta2/neuroD; type: in vivo; settings: 9 weeks, normalized to 18S rRNA
Method: (§1) Islets were isolated by the collagenase digestion technique. In brief, the animals were anesthetized with pentobarbital (50 mg/kg intraperitoneally) and midline laparotomy was performed. The pancreas was retrogradely filled with 3 mL ice-cold Hanks balanced salt solution (([HBSS] Sigma Chemical, St Louis, Mo.) supplemented with 0.3 mg/ml collagenase Boehringer Mannheim GmbH, Germany). The pancreas was subsequently removed and incubated for 19 minutes at 37° C. After rinsing in HBSS, the islets were handpicked under a stereomicroscope and immediately transferred to a tubes containing 1 ml Trizol (Gibco/Invitrogene, Calsbad, Calif., USA). The islets isolated from the NMRI mice were incubated overnight at 37° C. and 95% normal atmosphere/5% CO2 in 10 ml RPMI 1640 containing 11.1 mmol/L glucose supplemented with penicillin G and 100 μg/mL streptomycin (all Gibco/Invitrogene, Calsbad, Calif., USA).
(§2) For each group, islets from 3-4 mice (180-200 islets) were pooled in 1 ml Trizol reagent (Gibco/lnvitrogene, Calsbad, Calif., USA) before RNA purification. Total RNA was extracted according to the manufactures' instructions. RNA was quantified by measuring absorbance at 260 and 280 nm. The quality of the RNA was checked by the Agilent 2100 bioanalyzer (Agilent, Santa Clara, USA). […]

[3] = system: 11-beta-HSD-1; test: Relative real time RT-PCR in islets of KKAy mice (Example 3): 11-beta-HSD-1; type: in vivo; settings: 9 weeks
Method: as §1, §2

[4] = system: C/EBPalpha; test: Affymetrix gene chip analysis of KKAy islets: C/EBPalpha; type: in vivo, mice; settings: ISV vs. KKAy control islets, 9 weeks
Method: (§3) cRNA preparation and in vitro transcription: In total 6 Affymetrix arrays MOE430 2.0 probe array cartridge were used i.e. for analysis of 3 replicas for the KKAy control group and the ISV group, respectively. Each of the 6 samples consisted of pooled RNA from 3-4 KKAy mice. Preparation of target for hybridization was prepared from 340 ng of total RNA using MessageAmp™ II aRNA Amplification Kits (Ambion), according to the manufacturers instructions. Arrays were hybridised and scanned as described elsewhere (Kruhoffer et al., 2005).

[5] = system: InsII; test: Affymetrix gene chip analysis of KKAy islets: InsII; type: in vivo, mice; settings: ISV vs. KKAy control islets, 9 weeks
Method: as §3

C[C@@]12CC[C@@H]3[C@@](CC[C@H]4[C@@]3(C)CCC[C@@]4(C)C(=O)O)(CC1=O)C2 (single isomer, unassigned; ent-16) [ISV, ent-16-ketobeyeran-19-oic acid]
increased expression of INS-1 compared to standard diet [1]: 132% | increased expression of Beta2/neuroD, ISV group vs. control group [2]: 60% | down regulation of 11-beta-HSD-1 ([3]; RT-PCR): 2.5 fold | decreased expression of 11-beta-HSD-1, ISV group vs. control group ([3]; normalized to 18S rRNA): 61% | array: change of C/EBPalpha expression [4]: down regulation | array: change of InsII expression [5]: no changes
